Laboratory results reported in PMC8150020, “Studying the suitability of hybrid micelle liquid chromatography for estimating the lipophilicity of some partial dopamine agonists used to attain the reward circuit” (Royal Society Open Science, 2021).
Structures can show the parent of a compound that is named as a salt. Where two headings read alike, the source gives them in different places.

Experiments:
[1] = experimental determination of log Pm/w using MLC; type: physicochemical; settings: 0.18 M SDS, 0.3% TEA, pH 6, column 40°C
Method: (§1) Three micelle-based mobile phases were developed for the separation of this mixture. In all three cases, the separation was carried out on a Prontosil Kromaplus C18 column (250 × 4.6 mm) of particle size 5 µm, Leonberg, Germany, which was kept at 40°C. […] Separation of the three drugs was accomplished using 254 nm as a detection wavelength, adopting a flow rate of 1.5 ml min^−1.
(§2) Different actual SDS concentrations for each mobile phase (after subtracting the CMC of SDS at 40°C) were plotted versus the inverse of the capacity factor for each drug, using the optimized chromatographic conditions for MLC, HMLC and MELC, where pH was adjusted to 6, and the column temperature was kept at 40°C for the three separation methods.

[2] = set-up: method as in earlier work; settings: cited from earlier work
[3] = set-up: method as in earlier work; settings: cited from earlier work; remark: listed apart in the source
[4] = experimental determination of log Pm/w using HMLC; type: physicochemical; settings: for experimental log Pm/w, column temperature 25°C: pH 6, 25°C; for experimental log Pm/w, column temperature 30°C: pH 6, 30°C; for experimental log Pm/w, column temperature 35°C: pH 6, 35°C
[5] = experimental determination of log Pm/w using MELC; type: physicochemical; settings: 0.18 M SDS, 10% acetonitrile, 1% octane, 0.3% TEA, pH 6, column 40°C
Method: as §1, §2

[6] = HMLC, pH 3, 40°C, read-out: log P (experimental log Pm/w) pH 3
[7] = HMLC, pH 4, 40°C, read-out: log P (experimental log Pm/w) pH 4

SMILES | experimental log Pm/w MLC [1] | reported log P [2] | pka [3] | experimental log Pm/w, column temperature 25°C ([4]; HMLC) | experimental log Pm/w, column temperature 30°C ([4]; HMLC) | experimental log Pm/w, column temperature 35°C ([4]; HMLC) | experimental log Pm/w MELC [5] | chromatographic logP [4, 6] | chromatographic logP [4, 7] | experimental log Pm/w HMLC ([4]; 0.18 M SDS, 10% acetonitrile, 0.3% TEA, pH 6, column 40°C) | chromatographic logP ([4]; HMLC, pH 5, 40°C, read-out: log P (experimental log Pm/w) pH 5) | experimental log Pm/w, column temperature 40°C ([4]; HMLC, pH 6, 40°C) | chromatographic logP ([4]; HMLC, pH 6, 40°C, read-out: log P (experimental log Pm/w) pH 6)
CCCN[C@H]1CCc2nc(N)sc2C1 (racemic) [PRM, (RS)-4,5,6,7-tetrahydro-N-6-propyl-2,6-benzothiazolediamine dihydrochloride monohydrate] | 0.9385 | 2.34 | 10.5 | 1.1714 | 2.197 | 2.228 | 1.316 | – | – | – | – | – | –
O=C1CCc2ccc(OCCCCN3CCN(c4cccc(Cl)c4Cl)CC3)cc2N1 [ARP, 7-[4-[4-(2,3-dichlorophenyl)piperazin-1-yl]butoxy]-3,4-dihydro-1H-quinolin-2-one] | 2.182 | – | 10 | 3.12 | 3.66 | – | 2.275 | 4.23 | 4.52 | – | – | – | –
c1cnc(N2CCN(Cc3ccc4c(c3)OCO4)CC2)nc1 [PRB, 2-[4-(1,3-benzodioxol-5-ylmethyl)piperazin-1-yl] pyrimidine] | 0.7334 | 1.8 | 6.95 | 0.976 | – | 1.208 | 1.491 | 0.86 | 1.09 | 1.648 | 1.1 | 1.648 | 1.65
